{"source": "patent US20230248670A1", "about": "“APPLICATION OF PREPARATION FOR INHIBITING CAMK2G EXPRESSION IN PREPARATION OF MEDICINE FOR TREATING PSORIASIS” (priority 2022, published 2023)", "key": {"[1]": {"test_system": "skin sympathetic nerves of IMQ-induced mice", "test": "Local skin sympathectomy by intradermal 6-OHDA before IMQ treatment", "format": "in vivo, mouse", "procedure": "In an embodiment of the disclosure, in order to observe the effect of local sympathectomy on psoriasis mice, mice are injected with 6-OHDA intradermally before IMQ treatment (FIG. 25)."}, "SH-SY5Y cells": {"test_system": "SH-SY5Y cells", "test": "6-OHDA induced SH-SY5Y cell injury (qPCR, western blot)", "format": "cell-based, human", "description": "In an embodiment of the disclosure, to further study whether CAMK2γ directly affects the expression of TH in sympathetic nerves, RNA interference (RNAi) method is used to knock down CAMK2G in human neuroblastoma cell (SH-SY5Y). SH-SY5Y is a poorly differentiated tumor cell with high similarity in morphology, physiology and biochemical function to dopaminergic neurons in real-time in vivo, and can constitutively express TH."}, "IMQ-induced mice": {"test_system": "IMQ-induced mice", "conditions": "intraperitoneal injection; cited from earlier work"}, "[2]": {"test_system": "PMA-activated HL-60 cells", "test": "NETs protein release in PMA-activated HL-60 cells", "format": "cell-based", "description": "The existing literature discloses that although T cells producing IL-17 have long been the mainstream of psoriasis immunology research, neutrophils, as the largest number of cells in the innate immune system, have attracted much attention in the occurrence and development of psoriasis. Activated neutrophils produce enhanced respiratory burst, accompanied by the production of reactive oxygen species (ROS), ultimately leading to the development of NETosis. NETosis is a form of neutrophil death different from apoptosis and necrosis. NETosis is accompanied by the formation of NETs. NETs release proteases such as myeloperoxidase (MPO), neutrophil elastase (NE) and peptidyl arginine deiminase 4 (PAD4), which are involved in the hydrolysis and activation of inflammatory mediators and the formation of NETs of psoriasis autoantigens. HL60 is a bone marrow cell line with the potential to differentiate into neutrophils stimulated by dimethyl sulfoxide (DMSO). CAMK2γ is the member of CAMK family with the highest expression level and activity in HL-60 cells.\nIn the embodiment of the disclosure, in order to study whether CAMK2γ is involved in the formation of NETs in activated neutrophils, two kinds of CaMKII inhibitors, CaMKII-IN1 and KN93, are used."}, "[3]": {"test_system": "IMQ-induced psoriasis mice", "test": "IMQ-induced psoriasis mouse model with subcutaneous injection of NE, SAL or ICI", "format": "in vivo", "conditions": "for activation of p38 in IMQ-induced skin: SAL or ICI treatment, mouse skin; for IMQ-induced psoriasis-like phenotype (dorsal skin thickness, erythema, scaling) / proportion of IL-17A+ γδ T cells (γδ T-17 cells) in mouse skin: subcutaneous injection; for IMQ-induced psoriasis-like phenotype (dorsal skin thickness, erythema, scaling): IMQ-induced mice, vs control group; for proportion of IL-17A+ γδ T cells (γδ T-17 cells) in mouse skin: IMQ-induced mouse skin, flow cytometry", "procedure": "In the embodiment of the disclosure, establishment steps of IMQ-induced Camk2g^-/- psoriasis mouse model include steps as follows. 7-week-old wild type mice (WT) (n = 5) or Camk2g^-/- mice (n = 5) are taken to shave back hair, and the exposed skin area is 2 centimeters (cm) × 2 cm, […] (mg) of IMQ cream or control agent Vaseline (VAS) are evenly applied to the exposed skin of mice for 4 consecutive days, psoriasis area severity index (PASI) score is performed every day, and the mice are sacrificed on the 5th day to take the skin, spleen and blood for testing.\nIn the embodiment of the disclosure, the skin tissue is fixed with 10% formalin, embedded in paraffin, cut into 4 micrometers (µm) sections for hematoxylin and eosin (H&E) staining.\nIn the embodiment of the disclosure, the inflammation scoring method of the mouse model is an objective scoring system developed on the basis of clinical PASI score. Scores of erythema, scaling and thickening ranged from 0 to 4:0: none; 1: mild, 2: moderate, 3: obvious, and 4: very significant. The degree of erythema is scored using a scoring scaling based on erythema intensity. A cumulative score (i.e., erythema + scaling + thickening) can be used as an indicator of the severity of inflammation (the cumulative score is in a range of 0-12).\nIn the embodiment of the disclosure, separation steps of skin immunocytes include steps as follows. the skin is fully chopped and then digested in digestive enzymes at 37° C. and 225 revolutions per minute (rpm) for 1.5 hours to thereby obtain an initial digestion solution. The digestive enzymes are formulated as follows: 1.2 grams (g) bovine serum albumin (BSA) (Biofoxx, 4240GR100), 0.12 g type I collagenase (Sigma, C0130-5G), 0.06 g type IV collagenase (Worthington, LS004189) and 0.06 g hyaluronidase (Sigma, H3506) -5G) are dissolved in 30 milliliters (mL) dulbecco’s modified eagle medium (DMEM) (HyClone, SH30022.01). 150 microliters (µL) of 1 microgram per milliliter (mg/mL) deoxyribonuclease (DNase) (Yuanye, S10073) is added in the initial digestion solution and the digestion is continued for 30 minutes to obtain a first cell suspension. After the digestion, the first cell suspension is filtered through a 70-µm filter. The filtered first cell suspension is centrifuged at 4° C. and 2000 rpm for 8 minutes, and first cell particles are collected after removing a first supernatant. The first cell particles are suspended in 6 mL of 40% lymphocyte isolation solution (5.4 mL Percoll (GE Healthcare, 17-0891-09) +520 µL Hank’s Solution (Beyotime, C0219) +44 µL 2×Hepes Buffer (Solarbio, H1080-100) +[…] phosphate-buffered saline (PBS)) of a centrifuge tube. Then, 6 mL of 80% lymphocyte isolation solution (5.4 mL Percoll+520 µL Hank’s Solution+44 µL 2×Hepes Buffer+1.491 mL PBS) is slowly added to the tube wall to obtain a first mixed solution, and the first mixed solution is clearly separated into two layers. The first mixed solution is centrifuged at 4° C. and 2000 rpm for 20 minutes, and the centrifugal lifting force is kept to a minimum. The liquid in the centrifuge tube after centrifugation can be divided into four layers. From top to bottom of the centrifuge tube, there are 40% lymphocyte isolation solution, lymphocytes, 80% lymphocyte isolation solution and cell fragments. Lymphocytes are carefully transferred into a new centrifuge tube and thoroughly washed with 10 mL PBS to obtain a second mixed solution. The second mixed solution is centrifuged at 4° C. and 2000 rpm for 8 minutes to obtain a second cell suspension, and second cell particles are collected after removing a second supernatant. Then, 1 µL of each cell membrane surface antibody is added to 50 µL of PBS, mixed with the second cell particles, and incubated at room temperature for 30 minutes in the dark. […]"}, "Jurkat cells": {"test_system": "Jurkat cells", "test": "Proinflammatory cytokine production in PMA/ionomycin co-stimulated Jurkat cells", "format": "cell-based, human", "conditions": "co-stimulation with PMA and ionomycin", "description": "In the embodiments of the disclosure, “Phorbol 12-myristate 13-acetate (PMA)” and “ionomycin (Ion)” are used to activate Jurkat cells, and only activated Jurkat cells can highly express inflammatory factors.\nIn the embodiment of the disclosure, in order to in order to study how ADRB2 regulates the inflammatory response of γδ T cells, Jurkat cells (a kind of immortal human T lymphocytes) are stimulated with ADRB2 agonist SAL and antagonist ICI 118551 respectively."}, "Jurkat T cells": {"test_system": "Jurkat T cells", "test": "MAPK (p38, ERK, JNK) activation in PMA/ionomycin activated Jurkat T cells", "format": "cell-based, human", "conditions": "Jurkat T cells activated by PMA/ionomycin for 2 hours, treatment for 4 hours", "description": "This is consistent with the existing literature that p38 phosphorylation promotes the proliferation of Th17 cells in autoimmune arthritis. P38 MAPK signaling pathway plays a role in the activation and differentiation of T cells in the peripheral blood immune system."}, "[4]": {"test_system": "IMQ-induced psoriasis mice", "test": "IMQ-induced psoriasis mouse model with subcutaneous injection of NE, SAL or ICI", "format": "in vivo", "conditions": "after injection of NE"}, "[5]": {"test_system": "γδ T cell deficient-mice (Tcrd^-/-)", "test": "SAL subcutaneous injection in γδ T cell deficient-mice (Tcrd-/-)", "format": "in vivo, mouse", "description": "SAL has no effect on the ability of αβ T cells to produce IL-17 (FIG. 50). Combined with the previous results, NE in the skin mainly derives from the skin sympathetic nerves and mediates the release of IL-17 from γδ T cells instead of αβ T cells through the NE-ADRB2 signaling pathway."}, "[6]": {"conditions": "intradermal 6-OHDA, sympathetic denervated skin"}}, "data": [{"smiles": "NCCc1cc(O)c(O)cc1O", "note": "[6-OHDA, 6-hydroxydopamine]", "values": [{"measurement": "TH and pTH in skin", "setting": "[1]; intradermal 6-OHDA before IMQ, immunofluorescence and western blot", "value": "significant reduction of TH and pTH"}, {"measurement": "IMQ-induced psoriasis-like phenotype", "setting": "[1]; intradermal 6-OHDA, skin sympathetic denervation", "value": "reduces IMQ-induced psoriasis-like phenotype in mice"}, {"measurement": "IL-17A+ γδ T cells in skin", "setting": "[1]; [6]", "value": "IL-17A+ γδ T cells are reduced"}, {"measurement": "NE in skin", "setting": "[1]; [6]", "value": "reduction of NE"}, {"measurement": "CAMK2G expression", "setting": "SH-SY5Y cells; qPCR", "value": "no significant effect on CAMK2G expression"}, {"measurement": "intracellular TH transcription level", "setting": "SH-SY5Y cells; qPCR", "value": "decrease of intracellular TH transcription level"}, {"measurement": "phosphorylation levels of other members of the CaMKII family", "setting": "SH-SY5Y cells; western blot", "value": "may lead to increased phosphorylation levels of other members of the CaMKII family"}, {"measurement": "total protein level and pTH level of CAMK2γ", "setting": "SH-SY5Y cells; western blot", "value": "reduces the total protein level and pTH level of CAMK2γ"}, {"measurement": "IMQ-induced ear swelling", "setting": "IMQ-induced mice", "value": "can reduce IMQ-induced ear swelling"}, {"measurement": "production of IL-17", "setting": "IMQ-induced mice", "value": "does not affect the production of IL-17"}]}, {"smiles": "Cc1c(Cl)cccc1S(=O)(=O)Nc1nc(NCCc2ccccc2)nc2c1CN(Cc1ccccc1)CC2", "note": "[CaMKII-IN1]", "values": [{"measurement": "release of MPO, elastase and PAD4", "setting": "[2]", "value": "inhibits the release of MPO, elastase and PAD4"}]}, {"smiles": "Cc1ccc(OCC(O)C(C)NC(C)C)c2c1CCC2", "note": "(stereo not drawn) [ICI, ICI 118551]", "values": [{"measurement": "activation of p38 in IMQ-induced skin", "setting": "[3]", "value": "showed inhibitory effect"}, {"measurement": "IMQ-induced psoriasis-like phenotype (dorsal skin thickness, erythema, scaling)", "setting": "[3]", "value": "psoriasis phenotype of mice injected with ICI is reduced"}, {"measurement": "proportion of IL-17A+ γδ T cells (γδ T-17 cells) in mouse skin", "setting": "[3]", "value": "reduces a proportion of skin γδ T-17 cells"}, {"measurement": "production of T-cell proinflammatory cytokines IL-17A, TNF-α and IL-22", "setting": "Jurkat cells", "value": "reduces the production of the T-cell proinflammatory cytokines"}, {"measurement": "activation of ERK and JNK", "setting": "Jurkat T cells", "value": "does not affect the activation"}, {"measurement": "p38 phosphorylation", "setting": "Jurkat T cells", "value": "inhibited"}]}, {"smiles": "CC(C)Cn1cnc2c(N)nc3ccccc3c21", "note": "[IMQ, imiquimod]", "values": [{"measurement": "p38 phosphorylation in mouse skin", "setting": "[3]; IMQ treatment", "value": "p38 phosphorylation is activated by IMQ"}, {"measurement": "proportion of β2-AR+ T cells in mouse skin", "setting": "[3]; IMQ treatment", "value": "increases a proportion of β2-AR+ T cells in mouse skin"}, {"measurement": "TH phosphorylation in mouse skin", "setting": "[3]; IMQ treatment, western blot", "value": "significant upregulation of TH phosphorylation"}]}, {"smiles": "COc1ccc(S(=O)(=O)N(CCO)c2ccccc2CN(C)C/C=C/c2ccc(Cl)cc2)cc1", "note": "[KN93]", "values": [{"measurement": "release of MPO, elastase and PAD4", "setting": "[2]", "value": "inhibits the release of MPO, elastase and PAD4"}]}, {"smiles": "NC[C@H](O)c1ccc(O)c(O)c1", "note": "[NE, norepinephrine]", "values": [{"measurement": "IL-17A+ γδ T cells in CAMK2G-deleted mice", "setting": "[3]; NE administration, IMQ-induced Camk2g-/- mice", "value": "counteracts the decrease of IL-17A+ γδ T cells caused by CAMK2G deletion"}, {"measurement": "p38 phosphorylation in skin of Camk2g-/- mice", "setting": "[3]; NE injection, compared to IMQ-treated WT mice", "value": "increases and restores p38 phosphorylation"}, {"measurement": "IMQ-induced psoriasis-like phenotype (dorsal skin thickness, erythema, scaling)", "setting": "[3]", "value": "aggravates the IMQ-induced psoriasis-like phenotype"}, {"measurement": "proportion of IL-17A+ γδ T cells (γδ T-17 cells) in mouse skin", "setting": "[3]", "value": "increases a proportion of IL-17A+ γδ T cells in mouse skin"}, {"measurement": "difference in skin thickness between WT and Camk2g-/- mice", "setting": "[4]", "value": "disappeared"}]}, {"smiles": "OCc1cc(C(O)CNCCCCCCOCCCCc2ccccc2)ccc1O", "note": "(stereo not drawn) [SAL, salmeterol xinafoate]", "values": [{"measurement": "activation of p38 in IMQ-induced skin", "setting": "[3]", "value": "enhanced the activation of p38"}, {"measurement": "IMQ-induced psoriasis-like phenotype (dorsal skin thickness, erythema, scaling)", "setting": "[3]", "value": "psoriasis phenotype of mice injected with SAL increased"}, {"measurement": "proportion of IL-17A+ γδ T cells (γδ T-17 cells) in mouse skin", "setting": "[3]", "value": "promotes IL-17A production by γδ T cells"}, {"measurement": "ability of αβ T cells to produce IL-17", "setting": "[5]", "value": "no effect"}, {"measurement": "psoriasis phenotype and inflammatory infiltration", "setting": "[5]", "value": "promotion of psoriasis phenotype and inflammatory infiltration by SAL is counteracted by the lack of γδ T cells"}, {"measurement": "production of T-cell proinflammatory cytokines IL-17A, TNF-α and IL-22", "setting": "Jurkat cells", "value": "increase the production of T-cell proinflammatory cytokines IL-17A, TNF-α and IL-22"}, {"measurement": "p38 phosphorylation", "setting": "Jurkat T cells", "value": "significantly increased"}]}]}
